Measured values: the NIST ThermoML archive (doi:10.1016/j.jct.2005.06.011)

How the values were obtained:
[1] = refractive index (Na D-line) (dimensionless); xn = mol fraction of the nth substance listed; settings: 101 kPa, Liquid
[2] = xn = mol fraction of the nth substance listed; settings: 101 kPa, Liquid; for speed of sound: Linear variable-path acoustic interferometer

CC1CCCCC1 [methylcyclohexane] + CC(C)O
Settings | mass density, 298.15 K [kg/m3] | mass density, 303.15 K [kg/m3] | mass density, 308.15 K [kg/m3] | refractive index, 298.15 K | refractive index, 303.15 K | refractive index, 308.15 K | speed of sound, 298.15 K [m/s] | viscosity, 298.15 K [mPa·s] | viscosity, 303.15 K [mPa·s] | viscosity, 308.15 K [mPa·s]
[1], x1 = 0.1001 | – | – | – | 1.3822 | 1.3798 | 1.3775 | – | – | – | –
[1], x1 = 0.2033 | – | – | – | 1.3879 | 1.3854 | 1.3829 | – | – | – | –
[1], x1 = 0.3065 | – | – | – | 1.3936 | 1.3909 | 1.3883 | – | – | – | –
[1], x1 = 0.4049 | – | – | – | 1.3983 | 1.3956 | 1.3928 | – | – | – | –
[1], x1 = 0.5034 | – | – | – | 1.4029 | 1.4001 | 1.3973 | – | – | – | –
[1], x1 = 0.6022 | – | – | – | 1.4068 | 1.404 | 1.4013 | – | – | – | –
[1], x1 = 0.7009 | – | – | – | 1.4106 | 1.408 | 1.4053 | – | – | – | –
[1], x1 = 0.8021 | – | – | – | 1.4145 | 1.4118 | 1.4092 | – | – | – | –
[1], x1 = 0.9032 | – | – | – | 1.4184 | 1.4158 | 1.413 | – | – | – | –
[1], x1 = 1 | – | – | – | 1.4217 | 1.4192 | 1.4163 | – | – | – | –
[2], x1 = 0.1001 | 777.28 | 772.86 | 768.43 | – | – | – | 1151 | 1.634 | 1.441 | 1.248
[2], x1 = 0.2033 | 774.39 | 769.88 | 765.38 | – | – | – | 1159 | 1.35 | 1.197 | 1.044
[2], x1 = 0.3065 | 771.5 | 766.95 | 762.32 | – | – | – | 1166 | 1.117 | 1.004 | 0.8905
[2], x1 = 0.4049 | 769.55 | 764.95 | 760.33 | – | – | – | 1173 | 0.9645 | 0.8716 | 0.7785
[2], x1 = 0.5034 | 767.6 | 763.01 | 758.34 | – | – | – | 1181 | 0.8434 | 0.7708 | 0.698
[2], x1 = 0.6022 | 766.22 | 761.62 | 757 | – | – | – | 1188 | 0.7815 | 0.7193 | 0.6573
[2], x1 = 0.7009 | 765.17 | 760.61 | 756 | – | – | – | 1195 | 0.7197 | 0.6681 | 0.6167
[2], x1 = 0.8021 | 764.75 | 760.25 | 755.69 | – | – | – | 1203 | 0.703 | 0.6546 | 0.6061
[2], x1 = 0.9032 | 764.43 | 759.88 | 755.37 | – | – | – | 1210 | 0.6864 | 0.641 | 0.5955
[2], x1 = 1 | 764.99 | 760.66 | 756.3 | – | – | – | 1217 | 0.6757 | 0.631 | 0.5902
